# Assay results published in PMC2749862, “Glucocorticoids with different chemical structures but similar glucocorticoid receptor potency regulate subsets of common and unique genes in human trabecular meshwork cells” (BMC Medical Genomics, 2009).
# “And” between values parts separate entries of the source, which are not always exact repeats. Equal entries are not always repeated.
# Key:
# [1] = tested on: TM 86 cells; assay: Microarray gene expression profiling in TM 86 cells (with IPA and GoMiner analysis); assay type: cell-based, human; conditions: 1 μM, 24 hr
# Text: (§1) Cells were maintained in low glucose Dulbecco's Modified Eagle Medium (DMEM, Invitrogen, Carlsbad, CA) supplemented with 10% (vol/vol) FBS (American Type Culture Collection, Manassas, VA), 1% (vol/vol) penicillin and streptomycin (Invitrogen). Cells from the human HeLa cervical adenocarcinoma cell line (American Type Culture Collection) were maintained in α-MEM medium supplemented with 10% (v/v) FBS, 1% (v/v) penicillin and streptomycin. All cells were used within passages 3 to 6. […] Cells were maintained for one week with medium renewal every other day. The day before the experiment, confluent TM were washed once with phosphate-buffered saline (PBS) and then the cells were maintained in 1% FBS-containing medium with antibiotics. […] Control cells were treated with 0.1%(v/v) dimethylsulfoxide (DMSO). At the end of GC treatment, supernatant was discarded and the cell monolayer was kept frozen at -80°C for subsequent total RNA extraction and gene expression profiling. […] Briefly, RNA was isolated from flash frozen cell culture plates using RNeasy Mini columns (Qiagen, Valencia, CA) according to the manufacturer's protocol. There were three biological replicates per treatment condition. The quantity and purity of the extracted RNA was evaluated using a NanoDrop ND-1000 spectrophotometer (Nanodrop Technologies, Wilmington, DE, USA) and its integrity measured using an Agilent Bioanalyzer. […] The amount and quality of the fluorescently labeled cRNA was assessed using a NanoDrop ND-1000 spectrophotometer and an Agilent Bioanalyzer. An equal amount of Cy3-labeled cRNA (1.6 μg) was hybridized to the Agilent Human Whole Genome Oligo Microarray (Agilent Technologies) for 17 hours, prior to washing and scanning. Data were extracted from scanned images using Agilent's Feature Extraction Software (Agilent Technologies) using default settings. […] The full complement of microarray data has been deposited in the NIH/NLM Gene Expression Omnibus (GEO accession # GSE16643). […] The lists of differentially expressed genes were also applied to global functional, network and canonical pathway analyses using Ingenuity Pathway Analysis (Ingenuity® Systems, Redwood City, CA).
# [2] = tested on: TM 93 cells; assay: Microarray gene expression profiling in TM 93 cells (with IPA and GoMiner analysis); assay type: cell-based, human; conditions: 1 μM, 24 hr
# Text: as §1
# [3] = target: T1, glucocorticoid receptor (Homo sapiens, UniProt P04150); assay: GR radiolabeled competitive binding assay (IM-9 cell cytosol, [3H]dexamethasone; Cerep); conditions: for nH (Hill coefficient): IM-9 cell cytosol competition curves; for Ki: IM-9 cell cytosol, calculated by Cheng Prusoff equation; for IC50: read-out: GR binding affinity IC50
# T1 sequence (P04150 524-777 limits assumed): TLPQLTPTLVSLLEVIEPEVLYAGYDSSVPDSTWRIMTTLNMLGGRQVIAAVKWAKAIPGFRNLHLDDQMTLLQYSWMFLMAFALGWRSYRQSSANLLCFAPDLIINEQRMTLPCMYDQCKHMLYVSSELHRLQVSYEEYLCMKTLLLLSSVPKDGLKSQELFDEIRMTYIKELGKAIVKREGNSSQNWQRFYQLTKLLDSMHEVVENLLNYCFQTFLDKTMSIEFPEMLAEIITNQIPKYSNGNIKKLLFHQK
# Procedure: GR binding affinity assay was performed at Cerep Inc. (Celle l'Evescault, France), according to an established method. […] Nonspecific binding is determined in the presence of 10 μM triamcinolone. Following incubation, the samples are filtered rapidly under vacuum through glass fiber filters (GF/B, Packard) presoaked with 0.3% Poly(ethyleneimine) and rinsed several times with ice-cold 50 mM Tris-HCl using a 96-sample cell harvester (Unifilter, Packard). The filters are dried and counted for radioactivity in a scintillation counter (Topcount, Packard) using a scintillation cocktail (Microscint 0, Packard). The results are expressed as percent inhibition of the control radioligand specific binding. The IC50 values (concentration causing half-maximal inhibition of control specific binding) and Hill coefficients (nH) were determined by non-linear regression analysis of the competition curves generated with mean replicate values using Hill equation curve fitting (Y = D + [(A - D)/(1 + (C/C50)^nH)], where Y = specific binding, D = minimum specific binding, A = maximum specific binding, C = compound concentration, C50 = IC50, and nH = slope factor). […] The inhibition constants (Ki) were calculated using the Cheng Prusoff equation (Ki = IC50/(1+(L/KD)), where L = concentration of radioligand in the assay, and KD = affinity of the radioligand for the receptor). […] The GR binding assay was performed in duplicate.
# [4] = target: T1, glucocorticoid receptor; assay: GeneBLAzer beta-lactamase reporter gene assay, GR transactivation in MMTV-bla HeLa CellSensor cells; assay type: cell-based; conditions: 5 hr treatment
# Procedure: GR transactivation activity was assessed by the Invitrogen SelectScreen Profiling Service (Madison, WI), using Invitrogen GeneBLAzer beta-lactamase reporter gene technology. Profiling was performed using human HeLa cells stably transfected with an expression construct containing β-lactamase cDNA under the control of the MMTV response element previously identified as a GR response element (MMTV-bla HeLa CellSensor®). The MMTV-bla HeLa cells were plated in 384-well plates in 32 μl assay medium (OPTIMEM + 1% charcoal/dextran stripped FBS) at a density of 10,000 cells/well and incubated overnight. […] The β-lactamase activity of each sample was determined by adding 8 μl of 6-fold concentrated LiveBLAzer™ substrate solution to the samples followed by two hours of incubation at room temperature in a Tecan Safire2 plate reader using the appropriate LiveBLAzer™ filter settings. GC treatment was performed in 15-point dose response using a three-fold dilution series starting with a maximum compound concentration of 10 μM. Each data point represents a triplicate sample (n = 3). Assay reproducibility was determined by calculating Z' values for untreated vs. maximum stimulation. The GeneBLAzer assay was performed twice.
# [5] = human, following local administration; cited from earlier work
smiles,measurement,setting,value
"C[C@@H]1C[C@H]2[C@@H]3CCC4=CC(=O)C=C[C@]4(C)[C@@]3(F)[C@@H](O)C[C@]2(C)[C@@]1(O)C(=O)CO [DEX, dexamethasone]",function of significantly regulated transcripts (Ingenuity Pathway Analysis),[1],RNA post-transcriptional modifications
same,number of genes uniquely regulated by each GC,[1],1761
same,significantly regulated biological process (GoMiner gene ontology),[1],cellular component organization and biogenesis
same,significantly regulated network (Ingenuity Pathway Analysis),[1],a network centered around the RNA binding protein S1 or RNPS1
same,function of significantly regulated genes (Ingenuity Pathway Analysis),[2],histone methylation
same,number of genes uniquely regulated by each GC,[2],745
same,significantly regulated biological process (GoMiner gene ontology),[2],membrane lipid metabolic process
same,significantly regulated network (Ingenuity Pathway Analysis),[2],a network centered around a histone methyltransferase known as suppressor of zeste 12 homolog or SUZ12
same,nH (Hill coefficient),[3],1.06 ± 0.18
"CC1(C)O[C@@H]2C[C@H]3[C@@H]4C[C@H](F)C5=CC(=O)C=C[C@]5(C)[C@@]4(F)[C@@H](O)C[C@]3(C)[C@]2(C(=O)CO)O1 [FA, fluocinolone acetonide]",function of significantly regulated transcripts (Ingenuity Pathway Analysis),[1],lipid metabolism
same,number of genes uniquely regulated by each GC,[1],693
same,significantly regulated biological process (GoMiner gene ontology),[1],actin filament-based process
same,significantly regulated network (Ingenuity Pathway Analysis),[1],a GR-dependent network
same,ANGPTL4 FC (fold change),[1]; microarray,9.6 fold
same,ANGPTL7 FC (fold change),[1]; microarray,16.0 fold
same,AQP1 FC (fold change),[1]; microarray,-4.4 fold
same,CCRL1 FC (fold change),[1]; microarray,-4.7 fold
same,CXADR FC (fold change),[1]; microarray,-3.4 fold
same,FKBP5 FC (fold change),[1]; microarray,13.8 fold
same,GABRB1 FC (fold change),[1]; microarray,-4.0 fold
same,ITGA10 FC (fold change),[1]; microarray,25.1 fold
same,KAL1 FC (fold change),[1]; microarray,-5.6 fold
same,KCNB1 FC (fold change),[1]; microarray,20.1 fold
same,KIF4A FC (fold change),[1]; microarray,-3.6 fold
same,KLF15 FC (fold change),[1]; microarray,11.5 fold
same,LSP1 FC (fold change),[1]; microarray,14.9 fold
same,MXRA5 FC (fold change),[1]; microarray,-4.3 fold
same,MYOC FC (fold change),[1]; microarray,7.4 fold
same,PCDH19 FC (fold change),[1]; microarray,-5.1 fold
same,PER3 FC (fold change),[1]; microarray,-5.3 fold
same,PF4 FC (fold change),[1]; microarray,3.1 fold and 3.2 fold
same,RASL11B FC (fold change),[1]; microarray,-4.9 fold
same,RGC32 FC (fold change),[1]; microarray,>100 fold
same,SAA1 FC (fold change),[1]; microarray,34.6 fold
same,ZBTB16 FC (fold change),[1]; microarray,8.7 fold
same,EC50,[4],0.7 nM and 0.67 nM
same,function of significantly regulated genes (Ingenuity Pathway Analysis),[2],cell cycle
same,number of genes uniquely regulated by each GC,[2],2294
same,significantly regulated biological process (GoMiner gene ontology),[2],biopolymer metabolic process
same,significantly regulated network (Ingenuity Pathway Analysis),[2],JARID1B-based network
same,ANGPTL4 FC (fold change),[2]; microarray,9.1 fold
same,ANGPTL7 FC (fold change),[2]; microarray,13.0 fold
same,AQP1 FC (fold change),[2]; microarray,-3.2 fold
same,CCRL1 FC (fold change),[2]; microarray,-2.5 fold
same,CXADR FC (fold change),[2]; microarray,-1.8 fold
same,ENST00000344214 FC (fold change),[2]; microarray,-6.3 fold
same,FKBP5 FC (fold change),[2]; microarray,6.8 fold
same,GABRB1 FC (fold change),[2]; microarray,-2.2 fold
same,ITGA10 FC (fold change),[2]; microarray,9.1 fold
same,KAL1 FC (fold change),[2]; microarray,-3.0 fold
same,KCNB1 FC (fold change),[2]; microarray,5.2 fold
same,KIF4A FC (fold change),[2]; microarray,-2.2 fold
same,KLF15 FC (fold change),[2]; microarray,3.6 fold
same,LSP1 FC (fold change),[2]; microarray,18.0 fold
same,MXRA5 FC (fold change),[2]; microarray,-4.5 fold
same,MYOC FC (fold change),[2]; microarray,2.7 fold
same,OCA2 FC (fold change),[2]; microarray,98.0 fold
same,PCDH19 FC (fold change),[2]; microarray,-3.9 fold
same,PER3 FC (fold change),[2]; microarray,-3.6 fold
same,PF4 FC (fold change),[2]; microarray,6.5 fold
same,RGC32 FC (fold change),[2]; microarray,11.0 fold
same,SAA1 FC (fold change),[2]; microarray,8.3 fold
same,ZBTB16 FC (fold change),[2]; microarray,4.9 fold
same,nH (Hill coefficient),[3],1.10 ± 0.00
same,Ki,[3],0.97 ± 0.17 nM
same,IC50,[3],2 ± 0.42 nM
"CC1(C)O[C@@H]2C[C@H]3[C@@H]4CCC5=CC(=O)C=C[C@]5(C)[C@@]4(F)[C@@H](O)C[C@]3(C)[C@]2(C(=O)CO)O1 [TA, triamcinolone acetonide]",function of significantly regulated transcripts (Ingenuity Pathway Analysis),[1],cell morphology
same,number of genes uniquely regulated by each GC,[1],388
same,significantly regulated biological process (GoMiner gene ontology),[1],mitotic cell cycle
same,ANGPTL4 FC (fold change),[1]; microarray,7.9 fold
same,ANGPTL7 FC (fold change),[1]; microarray,26.5 fold
same,AQP1 FC (fold change),[1]; microarray,-5.1 fold
same,CCRL1 FC (fold change),[1]; microarray,-3.4 fold
same,CXADR FC (fold change),[1]; microarray,-4.8 fold
same,ENST00000344214 FC (fold change),[1]; microarray,-3.1 fold
same,FKBP5 FC (fold change),[1]; microarray,12.5 fold
same,GABRB1 FC (fold change),[1]; microarray,-4.9 fold
same,ITGA10 FC (fold change),[1]; microarray,17.7 fold
same,KAL1 FC (fold change),[1]; microarray,-6.7 fold
same,KCNB1 FC (fold change),[1]; microarray,19.9 fold
same,KIF4A FC (fold change),[1]; microarray,-4.1 fold
same,KLF15 FC (fold change),[1]; microarray,11.1 fold
same,LSP1 FC (fold change),[1]; microarray,15.4 fold
same,MXRA5 FC (fold change),[1]; microarray,-5.4 fold
same,MYOC FC (fold change),[1]; microarray,6.7 fold
same,PCDH19 FC (fold change),[1]; microarray,-5.0 fold
same,PER3 FC (fold change),[1]; microarray,-7.0 fold
same,RASL11B FC (fold change),[1]; microarray,-4.0 fold
same,RGC32 FC (fold change),[1]; microarray,>100 fold
same,SAA1 FC (fold change),[1]; microarray,35.3 fold
same,ZBTB16 FC (fold change),[1]; microarray,8.1 fold
same,EC50,[4],1.29 ± 0.28 nM
same,ocular tissue concentrations,[5],> 1 µM
same,function of significantly regulated genes (Ingenuity Pathway Analysis),[2],cell adhesion
same,number of genes uniquely regulated by each GC,[2],555
same,significantly regulated biological process (GoMiner gene ontology),[2],smooth muscle cell proliferation
same,ANGPTL4 FC (fold change),[2]; microarray,5.3 fold
same,ANGPTL7 FC (fold change),[2]; microarray,20.5 fold
same,AQP1 FC (fold change),[2]; microarray,-2.8 fold
same,CCRL1 FC (fold change),[2]; microarray,-2.1 fold
same,CXADR FC (fold change),[2]; microarray,-2.6 fold
same,FKBP5 FC (fold change),[2]; microarray,5.8 fold
same,GABRB1 FC (fold change),[2]; microarray,-2.6 fold
same,ITGA10 FC (fold change),[2]; microarray,5.6 fold
same,KAL1 FC (fold change),[2]; microarray,-3.3 fold
same,KCNB1 FC (fold change),[2]; microarray,11.3 fold
same,KIF4A FC (fold change),[2]; microarray,-2.3 fold
same,KLF15 FC (fold change),[2]; microarray,3.9 fold
same,MXRA5 FC (fold change),[2]; microarray,-4.5 fold
same,MYOC FC (fold change),[2]; microarray,2.6 fold
same,OCA2 FC (fold change),[2]; microarray,>100 fold
same,PCDH19 FC (fold change),[2]; microarray,-3.3 fold
same,PER3 FC (fold change),[2]; microarray,-3.8 fold
same,PF4 FC (fold change),[2]; microarray,4.4 fold
same,RGC32 FC (fold change),[2]; microarray,19.9 fold
same,SAA1 FC (fold change),[2]; microarray,11.9 fold
same,ZBTB16 FC (fold change),[2]; microarray,5.5 fold
same,nH (Hill coefficient),[3],1.05 ± 0.07
same,Ki,[3],0.72 ± 0.24 nM
same,IC50,[3],1.45 ± 0.5 nM
